Some test systems named below: MDA-N; BT-549 breast; RPMI-8226 leukemia; U251 CNS; EKVX NSCLC; SF-539 CNS; MDA-MB-231 breast; ACHN renal; SNB-19 CNS; UACC-257 melanoma; OVCAR-5 ovarian; SK-MEL-5 melanoma; SK-MEL-2 melanoma; DU-145 prostate; NCI-H226 lung; M14 melanoma; A498 renal; MDA-MB-435; CCRF-CEM leukemia; HS 578T breast.
Assay in all cases: DTP human tumour cell line panel, 48 h

Structures are written as SMILES.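 Each compound was tested at five concentrations against cells in 96-well plates for 48 hours. TGI: total growth inhibition.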

For the molecule `COC(=O)C1=COC(OC2OC(CO)C(O)C(O)C2O)C2C3CN4CCc5c([nH]c6ccccc56)C4(CC12)O3` (configuration not stated), the TGI in the experiment with MDA-N, in the experiment with BT-549 breast, with RPMI-8226 leukemia, in the experiment on U251 CNS, in the experiment with EKVX NSCLC and in the experiment on SF-539 CNS was over 100 µM in each case. Also, the TGI with MDA-MB-231 breast, with ACHN renal, with SNB-19 CNS, in the experiment with UACC-257 melanoma, in the experiment on OVCAR-5 ovarian and in the experiment on SK-MEL-5 melanoma was over 100 µM in each case. In addition, the TGI in the experiment on SK-MEL-2 melanoma, in the experiment with DU-145 prostate, with NCI-H226 lung, with M14 melanoma and with A498 renal was over 100 µM in each case.

`[N-]=[N+]=Nc1c(Cl)c(Cl)nc2ccccc12`: the TGI with MDA-N, in the experiment with MDA-MB-435, with RPMI-8226 leukemia, in the experiment with CCRF-CEM leukemia, in the experiment on EKVX NSCLC and in the experiment on SF-539 CNS was over 100 µM each time. Moreover, the TGI in the experiment on MDA-MB-231 breast, in the experiment on ACHN renal, with SNB-19 CNS, in the experiment on UACC-257 melanoma, with OVCAR-5 ovarian and in the experiment on SK-MEL-5 melanoma was over 100 µM throughout. Also, the TGI in the experiment on SK-MEL-2 melanoma, in the experiment on DU-145 prostate, with HS 578T breast, in the experiment on NCI-H226 lung, with M14 melanoma and in the experiment with A498 renal was over 100 µM in each case.

As to `CNC(=O)NCCN1CC2CCC(CC2)C1`, the TGI with MDA-N, with MDA-MB-435, in the experiment on RPMI-8226 leukemia, in the experiment with U251 CNS, in the experiment on CCRF-CEM leukemia and in the experiment with EKVX NSCLC was over 10 µM each time. The TGI with SF-539 CNS, in the experiment on MDA-MB-231 breast, in the experiment on ACHN renal, in the experiment with SNB-19 CNS, with UACC-257 melanoma and with SK-MEL-5 melanoma was over 10 µM throughout. The TGI in the experiment on SK-MEL-2 melanoma, in the experiment on DU-145 prostate, in the experiment on HS 578T breast, in the experiment with NCI-H226 lung, in the experiment with M14 melanoma and with A498 renal was over 10 µM throughout.

On to `CCSc1cc2c(cc1O)CC[C@@H]1[C@@H]2CC[C@]2(C)[C@@H](O)CC[C@@H]12`, for which the TGI in the experiment on MDA-N is 7.66 µM; with MDA-MB-435, 10.4 µM; in the experiment with RPMI-8226 leukemia it was over 100 µM; with U251 CNS, 25.2 µM; with CCRF-CEM leukemia it was 30.8 µM; in the experiment on SF-539 CNS it was 34.3 µM. The TGI in the experiment with MDA-MB-231 breast worked out at 18.8 µM; in the experiment with ACHN renal, 24.9 µM; in the experiment with SNB-19 CNS, 25.5 µM; in the experiment with UACC-257 melanoma it was 30.2 µM; with OVCAR-5 ovarian it was 51.2 µM; with SK-MEL-5 melanoma, 22.7 µM. In addition, the TGI is 37.7 µM with SK-MEL-2 melanoma; 74.9 µM with DU-145 prostate; 17.9 µM in the experiment with HS 578T breast; 35.1 µM with NCI-H226 lung; 28.9 µM in the experiment on A498 renal.

On to `CC(=NNC(=S)Nc1cccc(C)c1)c1cccc(C(C)=NNC(=S)Nc2cccc(C)c2)n1`, for which the total growth inhibition concentration (TGI) with MDA-N was over 100 µM; in the experiment with MDA-MB-435, over 100 µM; with RPMI-8226 leukemia, over 100 µM; in the experiment on U251 CNS, 93.3 µM; in the experiment with CCRF-CEM leukemia, over 100 µM; with EKVX NSCLC it was over 100 µM. Besides, the TGI with SF-539 CNS is 46.1 µM; in the experiment with MDA-MB-231 breast, 59.9 µM; in the experiment with ACHN renal it was 46.4 µM; in the experiment on SNB-19 CNS, over 100 µM; in the experiment with UACC-257 melanoma, 0.0745 µM; with OVCAR-5 ovarian, over 100 µM. For the same molecule, the TGI is 30.8 µM with SK-MEL-5 melanoma; 74 µM in the experiment on SK-MEL-2 melanoma; over 100 µM with DU-145 prostate; over 100 µM with HS 578T breast; 95.1 µM with NCI-H226 lung; 39.3 µM with M14 melanoma. Moreover, the TGI in the experiment on A498 renal stood at 61.6 µM.

For the molecule `C=C/C(C)=C\CC1[C@](C)(O)CC[C@H]2C(C)(C)C(O)CC[C@]12C` (some centres not stated), the TGI in the experiment with MDA-N, with MDA-MB-435, in the experiment with RPMI-8226 leukemia, with U251 CNS, in the experiment with CCRF-CEM leukemia and in the experiment on EKVX NSCLC was over 100 µM in each case. Besides, the TGI with SF-539 CNS, with MDA-MB-231 breast, with ACHN renal, with SNB-19 CNS, with UACC-257 melanoma and with OVCAR-5 ovarian was over 100 µM throughout. Besides, the TGI in the experiment with SK-MEL-5 melanoma, with SK-MEL-2 melanoma, with DU-145 prostate, in the experiment on HS 578T breast, with NCI-H226 lung and with M14 melanoma was over 100 µM in each case. Besides, in the experiment on A498 renal, the TGI was over 100 µM.

Take `COC(=O)c1ccccc1CC(Cc1ccc2c(c1)CCC2)C(=O)OC` (configuration not stated): the TGI in the experiment on MDA-N, with MDA-MB-435, in the experiment on RPMI-8226 leukemia, with U251 CNS, in the experiment on CCRF-CEM leukemia and in the experiment on EKVX NSCLC was over 100 µM each time. Further, the TGI in the experiment with SF-539 CNS, in the experiment with MDA-MB-231 breast, in the experiment with ACHN renal, in the experiment with SNB-19 CNS, with UACC-257 melanoma and with OVCAR-5 ovarian was over 100 µM throughout. The TGI is 84.1 µM in the experiment on SK-MEL-5 melanoma; over 100 µM in the experiment with SK-MEL-2 melanoma; over 100 µM in the experiment with DU-145 prostate; over 100 µM in the experiment with HS 578T breast; over 100 µM in the experiment on NCI-H226 lung; over 100 µM in the experiment on M14 melanoma. The molecule also registered a TGI in the experiment with A498 renal of over 100 µM.

In the case of `CCOC(=O)C1(C(=O)OCC)C[C@@H](C)[C@@H](O)C1`, the TGI in the experiment with MDA-N, in the experiment with MDA-MB-435, in the experiment with RPMI-8226 leukemia, with U251 CNS, in the experiment on CCRF-CEM leukemia and in the experiment with EKVX NSCLC was over 100 µM each time. For the same molecule, the TGI in the experiment on SF-539 CNS, in the experiment on MDA-MB-231 breast, with ACHN renal, with SNB-19 CNS, in the experiment with UACC-257 melanoma and with OVCAR-5 ovarian was over 100 µM each time. The TGI in the experiment with SK-MEL-5 melanoma, with SK-MEL-2 melanoma, in the experiment with DU-145 prostate, with HS 578T breast, with NCI-H226 lung and with M14 melanoma was over 100 µM in each case. For the same molecule, the TGI in the experiment on A498 renal was over 100 µM.

In the case of `O=c1cc(CSc2c(-c3ccccc3)c(=O)n(-c3ccccc3)c(=S)n2-c2ccccc2)[nH]c(=O)[nH]1`, the TGI in the experiment with MDA-N, in the experiment with BT-549 breast, in the experiment on MDA-MB-435, in the experiment on RPMI-8226 leukemia, in the experiment on U251 CNS and in the experiment on CCRF-CEM leukemia was over 100 µM in each case. The TGI in the experiment with EKVX NSCLC, with SF-539 CNS, with MDA-MB-231 breast, with ACHN renal, with SNB-19 CNS and with UACC-257 melanoma was over 100 µM throughout. The TGI with OVCAR-5 ovarian, with SK-MEL-5 melanoma, with SK-MEL-2 melanoma, with DU-145 prostate, with M14 melanoma and in the experiment with A498 renal was over 100 µM each time.

On to `C[Si](C)(N[Si](C)(C)OCCc1ccccc1)OCCc1ccccc1`, for which the TGI with MDA-N, with BT-549 breast, in the experiment with MDA-MB-435, in the experiment on RPMI-8226 leukemia, in the experiment with U251 CNS and with CCRF-CEM leukemia was over 100 µM in each case. Moreover, the TGI in the experiment on EKVX NSCLC, in the experiment with ACHN renal, in the experiment with SNB-19 CNS, in the experiment with UACC-257 melanoma, in the experiment on OVCAR-5 ovarian and with SK-MEL-5 melanoma was over 100 µM each time. For the same molecule, the TGI in the experiment with SK-MEL-2 melanoma, in the experiment with DU-145 prostate, in the experiment on NCI-H226 lung, in the experiment on M14 melanoma and with A498 renal was over 100 µM each time.

As for `O=C(CC(C(=O)c1cccs1)c1ccsc1)c1ccccc1` (configuration not stated), the TGI in the experiment with MDA-N, with MDA-MB-435, with RPMI-8226 leukemia, with U251 CNS, in the experiment on CCRF-CEM leukemia and in the experiment with EKVX NSCLC was over 100 µM each time. Moreover, the TGI is over 100 µM with SF-539 CNS; 96.9 µM in the experiment with MDA-MB-231 breast; over 100 µM in the experiment on ACHN renal; over 100 µM with UACC-257 melanoma; over 100 µM in the experiment on OVCAR-5 ovarian; over 100 µM in the experiment on SK-MEL-5 melanoma. In addition, the TGI in the experiment on DU-145 prostate, with HS 578T breast, in the experiment on NCI-H226 lung, in the experiment with M14 melanoma and in the experiment with A498 renal was over 100 µM throughout.

As for `O=C1/C(=C/c2ccco2)N=C2Sc3c(nc[nH]c3=O)N12`, the TGI in the experiment with MDA-N, with MDA-MB-435, in the experiment with RPMI-8226 leukemia, in the experiment with U251 CNS, in the experiment with CCRF-CEM leukemia and with EKVX NSCLC was over 100 µM in each case. Further, the TGI in the experiment with SF-539 CNS, in the experiment on MDA-MB-231 breast, in the experiment with ACHN renal, in the experiment with SNB-19 CNS, in the experiment on UACC-257 melanoma and with OVCAR-5 ovarian was over 100 µM in each case. Also, the TGI in the experiment on SK-MEL-5 melanoma, in the experiment with SK-MEL-2 melanoma, in the experiment with DU-145 prostate, in the experiment on HS 578T breast, with NCI-H226 lung and with M14 melanoma was over 100 µM throughout. In the experiment on A498 renal, this molecule registered a TGI of over 100 µM.

In general, TGI refers to the concentration giving total growth inhibition. Read a high TGI as less potent growth arrest.

The record behind these values is PubChem BioAssay (NCI).
